Data on 21 compounds can be found in publication PMC9381536, “Non-apoptotic cell death induction via sapogenin based supramolecular particles” (Scientific Reports, 2022).

The subject of one data set is A549. Description: Cytotoxicity analysis (WST-1). Format: cell-based. To be noted: Homo sapiens, A549, 48 h. As to the method:
(§1) HCC1937 (Human breast cancer line), HeLa (Human […]), A549 (Human lung adenocarcinoma), MRC-5 (Human lung fibroblasts), MCF7 (Human breast cancer cells), A549 (human lung carcinoma) were obtained from American Type Culture Collection and maintained as exponentially growing monolayers by culturing according to the supplier’s instructions. MCF7, HeLa, MRC-5, and A549 cell lines were cultured and routinely passaged in DMEM media containing 10% FBS, while HCC1937 cell lines were propagated in RPMI 1640 containing 10% FBS.
(§2) Following the treatment with compounds or vehicle for 48 h, the 10% WST-1 (Roche, Switzerland) in medium was replaced in each 96 well. After 4 h incubation with WST-1 reagent at 37 °C and 5% CO2, the absorbance was measured using a microplate reader at 440 nm (Varioscan, Thermo Fisher Scientific, US). Graph Pad Prism 5 (San Diego, CA, US.) was used to calculate the IC50, which represents the concentration of compounds that is required for 50% inhibition in comparison to the vehicle-treated controls. The experiments were repeated three times independently.
(In general: Formazan colour is commonly taken as a measure of viable cells.)

Another data set deals with HCC1937. Kind of data set: Cytotoxicity analysis (WST-1). The data set is classed as cell-based. As to conditions: Homo sapiens, HCC1937, 48 h. As to the method:
as §1, §2

A further data set concerns HeLa. Kind of data set: Cytotoxicity analysis (WST-1). Format: cell-based. To be noted: Homo sapiens, 48 h. On the procedure:
as §1, §2

The subject of a further data set is MCF7. Kind of data set: Cytotoxicity analysis (WST-1). The data set is classed as cell-based. To be noted: Homo sapiens, MCF7, 48 h. As to the method:
as §1, §2

A further data set deals with MRC-5. Description: Cytotoxicity analysis (WST-1). The data set is classed as cell-based. To be noted: Homo sapiens, MRC5, MRC-5 normal cell line, 48 h. On the procedure: as §1, §2
In data set [1] the test system is HeLa, HCC1937, MCF7, A549 and MRC-5. Kind of data set: cells. Format: cell-based, Human.
Source text: We next aimed to further characterize the relation between the chemical structure of AG-08 and its capacity of supramolecular assembly formation together with its biological activities by preparing further derivatives. In this regard, 18 analogs (Fig. 4) were synthesized from 20(27)-octanor-cycloastragenol (SCG), cycloastragenol (CG), and astragenol (AG) by the methods shown in the method section. The details and characterization of which are shown in Supplementary Information. The cytotoxic activities of the semi-synthetic analogs were evaluated against four human cancer cell lines, namely HeLa, HCC1937, MCF7, and A549 as well as against MRC-5 as a normal cell line.
as §1, §2

Data set [2] deals with HCC1937 cells. Kind of data set: Endocytosis/vesicular trafficking inhibitors against AG-08-mediated cell death. As to conditions: 1 h pre-treatment, then 8 µM AG-08 24 h, HCC1937, WST-1. Format: cell-based, Human. As to the method: Figure 2 AG-08 is related with endosomal pathway. (A) After pre-treatment with 20 µM pitstop II, 0.5 mM methyl-β-cyclodextrin (MβC), 80 µM dynasore, 20 µM cytochalasin d (Cyto D) or 20 µM chlorpromazine (CPZ) for 1 h, HCC1937 cells were treated with 8 µM AG-08 for 24 h. Then cell viability was determined by using WST-1. Reported values were normalized on cells treated with only AG-08. Error bars are the standard deviations (n = 3). p-values were calculated with respect to AG-08 treated cells by two-tailed equal variance Student’s t-test (*p < 0.05, ***p < 0.001, ****p < 0.0001) (B) HCC1937 cells were treated with brefeldin A (Bref A) for 1 h and then treated with 8 µM AG-08 for 24 h. Error bars represent standard deviations (n = 3). p-values were calculated with respect to AG-08-treated cells (*p < 0.05, **p < 0.005, ***p < 0.001). (C) Following AG-08 treatment for 16 h, EEA1 proteins were stained using the anti-EEA1 antibody in HCC1937 cells (scale bar = 25 µm).
Pitstop II (Sigma; SML1169), methyl β cyclodextrin (Cayman; 21,633), chlorpromazine (Cayman; 16,129), dynasore (Cayman, 14,062) and cytochalasin D (Cayman; 11,330) were used as endocytosis inhibitors.

The subject of data set [3] is HCC1937 cells. Kind of data set: Cytotoxicity of 220 nm filtrates. To be noted: HCC1937, 24 h. Format: cell-based. On the procedure:
Figure 1 AG-08 mediated cytotoxicity relies on the supramolecular structures. (A) Structure of AG-08. (B) The scanning transmission electron micrograph of 16 µM AG-08 in PBS. Figure is a representative image of stained sample with uranyl acetate (5683 × magnification; scale bar 600 nm). (C) After 3 h incubation of Nile red solution with AG-08 or AG, fluorescence intensity of Nile red was measured. (D) AG-08, Staurosporine (Sta) or vehicle samples prepared in the cell condition medium was filtrated by 220 nm filter and HCC1937 cells were exposed to the filtrates. After 24 h, the viability of cells was measured and represented as a percentage of that of the vehicle control. The error bars represent mean value ± s.d. (n = 3). *p < 0.05, **p < 0.005, ***p < 0.001. (E) Tween 20 (1:40,000) was added to the fresh medium before addition of 8 μM AG-08 or vehicle. Then cell medium was replaced with this fresh medium. Cell viability was detected after 24 h incubation. […] TEXT PRINTED IN THE PICTURE: (F) no label printed: Diameter: 153.2±4.6; polydispersity index: 0.218
To verify that the activity of AG-08 arises from its supramolecular structures, freshly prepared AG-08 solutions were filtered using 220 nm-filters to remove AG-08 supramolecular particles from medium, and the filtrates were analyzed for their cytotoxicity. […] Next, Tween-20 was utilized as a non-ionic detergent to block particle formation, and AG-08-mediated cell death was inhibited as expected (Fig. 1E). […]

The IC50 is the midpoint of a concentration-inhibition curve. Turning to `CC(C)(O)C1CCC(C)(C2C(O)CC3(C)C4CC(=O)C5C(C)(CCC(O)C5(C)C)C4=CCC23C)O1` (stereo not drawn) [AG-01], the IC50 in the data set with A549, in the data set on HCC1937, with HeLa, in the data set with MCF7 and in the data set on MRC-5 was above 30 µM throughout.

With `CC(C)(O)C1CCC(C)(C2C(O)CC3(C)C4CC(O)C5C(C)(C)C=CCC5(C)C4=CCC23C)O1` (stereo not drawn) [AG-02], the IC50 amounted to 30.5 µM in the data set on A549; 46.1 µM with HCC1937; 42.6 µM with HeLa; 32.1 µM in the data set on MCF7; 39.9 µM with MRC-5. In data set [1], the “cytotoxic activity (structure-activity statement)” value (“cytotoxic activity” below) is on record as “did not exhibit antiproliferative effect”.

For the compound `CC(C)(O)C1CCC(C)(C2C(O)CC3(C)C4C=CC5C(C)(CCC(O)C5(C)C)C4=CCC23C)O1` (stereo not drawn) [AG-03], the IC50 worked out at 25.5 µM with A549; 20.3 µM in the data set with HCC1937; 33.4 µM in the data set on HeLa; 21.8 µM in the data set on MCF7; 24.4 µM in the data set with MRC-5.

For `CC(C)(O)C1CCC(C)(C2C(O)CC3(C)C4C=CC5C(C)(CCC(OS(C)(=O)=O)C5(C)C)C4=CCC23C)O1` (stereo not drawn) [AG-04], the IC50 in the data set on A549 is 27.5 µM; with HCC1937 it was above 50 µM; in the data set with HeLa, above 50 µM; in the data set with MCF7, 22.1 µM; in the data set with MRC-5, 29.6 µM. Further, in data set [1], the “cytotoxic activity” value is on record as “the activity was lost”.

As to `CN(C)c1cccc2c(S(=O)(=O)OC3CCC4(C)C5=CCC6(C)C(C7(C)CCC(C(C)(C)O)O7)C(O)CC6(C)C5C=CC4C3(C)C)cccc12` (stereo not drawn) [AG-07], the IC50 with A549 turned out to be 38.2 µM; in the data set on HCC1937, 38.3 µM; in the data set with HeLa, 34.7 µM; in the data set on MRC-5, 7.4 µM. In data set [1], the “cytotoxic activity” value is on record as “loss of activity”.

Take `C[C@H]1CCC/C=C/[C@@H]2C[C@H](O)C[C@H]2[C@H](O)/C=C/C(=O)O1` [Brefeldin A]: the “protection of cells against AG-08-mediated cell death” value (“protection of cells” below) in the data set with HCC1937 cells [2] is on record as “reduced AG-08 dependent cell death”.

In the case of `CC(C)(O)C1CCC(C)(C2C(O)CC3(C)C4CC(O)C5C(C)(C)C(O)CCC56CC46CCC23C)O1` (stereo not drawn) [CG, cycloastragenol, reference compound], the IC50 with A549, in the data set on HCC1937, in the data set with HeLa, with MCF7 and in the data set with MRC-5 was above 50 µM throughout.

Turning to `CC(C)(O)C1CCC(C)(C2C(O)CC3(C)C4CC(=O)C5C(C)(C)C(O)CCC56CC46CCC23C)O1` (stereo not drawn) [CG-01], the IC50 in the data set on A549, in the data set with HCC1937, in the data set on HeLa, with MCF7 and in the data set on MRC-5 was above 30 µM in each case.

For the compound `CC(C)(O)C1CCC(C)(C2C(O)CC3(C)C4C=CC5C(C)(C)C(O)CCC56CC46CCC23C)O1` (stereo not drawn) [CG-02], the IC50 in the data set with A549 was determined as 21.1 µM; in the data set with HCC1937, 32.5 µM; in the data set with HeLa, 43.9 µM; with MCF7, 21.2 µM; with MRC-5, 33.4 µM. The “cytotoxic activity” value in data set [1] was “did not exhibit antiproliferative effect”.

Regarding `CC(C)(O)C1CCC(C)(C2C(O)CC3(C)C4C=CC5C(C)(C)C(OS(C)(=O)=O)CCC56CC46CCC23C)O1` (stereo not drawn) [CG-04], the half-inhibitory concentration (IC50) in the data set with A549, with HCC1937, in the data set on HeLa, in the data set on MCF7 and in the data set on MRC-5 was above 50 µM each time. The “cytotoxic activity” value in data set [1] is on record as “the activity was lost”.

Regarding `CC1(C)C(O)CCC23CC24CCC2(C)CC(O)CC2(C)C4CC(O)C13` (stereo not drawn) [SCG, 20(27)-octanor-cycloastragenol, reference compound], the IC50 in the data set with A549, in the data set with HCC1937, with HeLa, in the data set on MCF7 and in the data set with MRC-5 was above 50 µM in each case.

For `Cc1ccc(S(=O)(=O)OC2CC3(C)CCC45CC46CCC(O)C(C)(C)C6C(O)CC5C3(C)C2)cc1` (stereo not drawn) [SCG-01], the IC50 in the data set on A549, with HCC1937, with HeLa, in the data set with MCF7 and in the data set with MRC-5 was above 50 µM in each case.

On to `CC1(C)C(O)CCC23CC24CCC2(C)CC(O)CC2(C)C4C=CC13` (stereo not drawn) [SCG-02], for which the IC50 in the data set on A549, in the data set with HCC1937, with HeLa, in the data set on MCF7 and in the data set on MRC-5 was above 50 µM in each case.

With `Cc1ccc(S(=O)(=O)OC2CC3C4(C)CC(O)CC4(C)CCC34CC43CC=CC(C)(C)C23)cc1` (stereo not drawn) [SCG-03], the IC50 in the data set on A549, in the data set with HCC1937, in the data set on HeLa, in the data set with MCF7 and in the data set with MRC-5 was above 50 µM in each case.

With `Cc1ccc(S(=O)(=O)OC2CC3(C)CCC45CC46CCC(OS(=O)(=O)c4ccc(C)cc4)C(C)(C)C6C=CC5C3(C)C2)cc1` (stereo not drawn) [SCG-04], the IC50 in the data set with A549, in the data set with HCC1937, in the data set on HeLa, in the data set with MCF7 and in the data set with MRC-5 was above 50 µM each time.

As for `Cc1ccc(S(=O)(=O)OC2CC3(C)CCC45CC46CCC(O)C(C)(C)C6C=CC5C3(C)C2)cc1` (stereo not drawn) [SCG-05], the IC50 with A549, in the data set on HCC1937, with HeLa, in the data set on MCF7 and in the data set with MRC-5 was above 50 µM each time.

Take `CC1(C)C(OS(C)(=O)=O)CCC23CC24CCC2(C)CC(OS(C)(=O)=O)CC2(C)C4C=CC13` (stereo not drawn) [SCG-06]: the IC50 in the data set with A549, in the data set with HCC1937, in the data set with HeLa, in the data set on MCF7 and in the data set with MRC-5 was above 50 µM in each case.

Consider `CC1(C)C(O)CCC23CC24CCC2(C)CC(OS(C)(=O)=O)CC2(C)C4CC(O)C13` (stereo not drawn) [SCG-07], for which the IC50 in the data set on A549, with HCC1937, in the data set on HeLa, in the data set with MCF7 and with MRC-5 was above 50 µM each time.

`CN(C)CCCN1c2ccccc2Sc2ccc(Cl)cc21` [chlorpromazine]: the “protection of cells” value in the data set on HCC1937 cells [2] is recorded as “failed to rescue cells”.

For the compound `C=C1[C@@H](C)[C@H]2[C@H](Cc3ccccc3)NC(=O)[C@]23[C@H](OC(C)=O)/C=C/[C@@](C)(O)C(=O)[C@@H](C)C/C=C/[C@H]3[C@@H]1O` [cytochalasin D], the “protection of cells” value in the data set with HCC1937 cells [2] was “failed to rescue cells”.

For the compound `CN[C@@H]1C[C@H]2O[C@@](C)([C@@H]1OC)n1c3ccccc3c3c4c(c5c6ccccc6n2c5c31)C(=O)NC4` [staurosporine, reference compound], the “cytotoxicity of filtrate after 220 nm filtration” value in the data set with HCC1937 cells [3] is listed as “still effectively caused cell death”.
